{"source": "patent EP0859230A1", "about": "“Detection of analytes using electrochemistry” (priority 1997, dated 1998)", "key": {"Antigentamycin": {"system": "Antigentamycin", "test": "End-point competitive microtiter plate assay with gentamycin-GOD, hydrogen peroxide peak measured in flow cell", "format": "binding", "settings": "gentamycin concentrations as low as 5 ppb; 1:10 000 dilution of gentamycin-GOD conjugate", "method": "The immunological reaction step is performed in a microtiter plate. Using GOD as the enzyme label, the final microtiter well solution will contain hydrogen peroxide, the amount of which is inversely proportional to the amount of free gentamycin present in the sample under uniform conditions (competitive assay approach). This solution is pumped through the flow cell yielding a current peak, the magnitude of which is directly proportional to the amount of hydrogen peroxide present. Since no enzyme label is present in the final solution, no further hydrogen peroxide generation occurs after removal of solution from the microtiter well, thus current peaks, as opposed to current steps are observed on liquid passage through the flow cell.\nMicrotiter plates were coated in carbonate/bicarbonate buffer pH 9.6 for 1 hour at 37°C, then washed and blocked with 0.5% w/v gelatin in PBS buffer pH 7.4. Plates were either used directly or stored at 4°C until required.\nPrimary incubations with gentamycin-GOD, with or without free gentamycin, and in milk or buffer (PBS pH 7.4) were performed for 1 hour at 37°C. Gentamycin-GOD concentrations were varied between 1:1000 and 1:20 000. […]\nAfter a given time period for substrate conversion, 150 µl of solution was pumped through the flow cell using a peristaltic pump set at a constant flow rate of 300 µl/min. Responses were measured as peak heights in nA or mA. […]"}, "[1]": {"system": "monoclonal anti-gentamycin antibody", "test": "Competitive flow-cell electrochemical immunoassay: free gentamycin vs gentamycin-GOD conjugate in milk", "format": "binding", "method": "Strips of nitrocellulose were cut to the exact size of 0.4 x 0.9 cm. Strips were soaked in a solution of 5 µg/ml of monoclonal anti-gentamycin antibody in PBS buffer pH 7.4, for 1 hour at ambient temperature.\nAfter incubation, strips were blocked in a 2% w/v BSA solution in PBS(pH 7.4) for 1 hour at ambient temperature.\nIndividual strips were removed from the blocking solution and mounted onto the working electrode surface, thus creating a complete sensor card.\nSensor cards were mounted into the flow cell, the strip of nitrocellulose being held in place by a rubber seal, used to prevent leakage during operation of the flow cell device.\nOne ml samples of milk were aliquoted, to which were added 25 µl of a: 1:1000 (A), 1:2000 (B) or 1:2500 (C) dilution of gentamycin-GOD conjugate (prepared with state of the art procedures).\nFree gentamycin was then added to each milk sample, yielding solutions having gentamycin concentrations varying between 0 and 1000 ppb.\nA pumping device was connected to the flow cell and the prepared milk samples were each tested with a new sensor card mounted in place.\nThe flow rate through the system was adjusted so that the complete milk sample passed through the system over a 3 minute time period. A 1 minute wash step was then performed with 0.1 % w/v Tween in 0.1M PBS (pH 7.4). Immediately after each wash step, 0.5M glucose in 0.1M PBS/ 0.1M KCl was passed through the flow cell and the electrochemical responses generated were recorded both as absolute values and as initial response-time velocities in nA/sec.\nA 1:10 dilution of the MoAb stock solution was used to coat the nitro-cellulose strips. Gentamycin-glucose oxidase conjugate concentrations were varied from 1:4000 (exp.A) to 1:8000 (exp.B) to 1:10 000 (exp. C)."}, "[2]": {"system": "PBP (penicillin binding protein)", "test": "Competitive inhibition assay: penicillin vs 7-ACA-GOD on PBP-coated nitrocellulose strips, amperometric detection in flow cell", "settings": "CV in percent in brackets; for Velocity (nA sec^1) Mean: over 200 sec; for Absolute response (µA) Mean (CV): over 500 sec", "method": "Strips of nitrocellulose membrane were cut to the exact size of 0.4 x 0.9 cm. Strips were soaked in a solution of 5 mg/ml PBP (penicillin binding protein) in buffer (0.1M phosphate buffered saline (PBS), pH 7.4). The strips were left to soak for 1 hour at ambient temperature.\nAfter incubation, strips were blocked in a 2% w/v bovine serum albumin (BSA) solution in PBS buffer (pH 7.4) for 1 hour at ambient temperature.\nIndividual strips were removed from the blocking solution and incubated for 5 minutes at 64°C in a 1:2000 dilution of 7-ACA-GOD stock solution in whole milk with or without free analyte (penicillin G) present.\nStrips were washed for 20 seconds in PBS and placed onto the working electrode of the screen-printed sensor card.\nThe card was mounted into the flow cell or flowing liquid system and a 0.1M PBS solution was introduced, pumped at a constant rate through the flow cell. The working electrode was poised at a potential of +350 mV and the system allowed to achieve electrochemical equilibrium. A 0.1M glucose solution in 0.1M PBS/0.1M KCl was then pumped into the system. The flow was halted after 60 seconds. The electrochemical response of the system was monitored throughout this period.\nResults can be expressed as total current increase in µA over a given time interval or can be interpreted as current increase per unit time (µA/sec).\nNitro-cellulose strips were prepared in two separate batches. […] Responses are also recorded as 'velocities' whereby the maximum current versus time slope is measured during the period of glucose flow across the working electrode surface (expressed as nA/sec). Results are also expressed as a percentage of the signal of the zero ppb penicillin positive control, that is, the zero inhibited response that therefore yields a 100% response value."}, "[3]": {"settings": "Exp. A (conjugate 1:4000), gentamycin 10 ppb in milk, duplicate"}, "[4]": {"settings": "Exp. A (conjugate 1:4000), gentamycin 100 ppb in milk, duplicate"}, "[5]": {"settings": "Exp. A (conjugate 1:4000), gentamycin 1000 ppb in milk, duplicate"}, "[6]": {"settings": "Exp. B (conjugate 1:8000), gentamycin 10 ppb in milk, duplicate"}, "[7]": {"settings": "Exp. B (conjugate 1:8000), gentamycin 100 ppb in milk, duplicate"}, "[8]": {"settings": "Exp. C (conjugate 1:10 000), gentamycin 10 ppb in milk, triplicate"}, "[9]": {"settings": "Exp. C (conjugate 1:10 000), gentamycin 100 ppb in milk, triplicate"}, "[10]": {"settings": "Batch 1, penicillin 100 ppb in whole milk, n=2"}, "[11]": {"settings": "Batch 2, penicillin 10 ppb in whole milk, n=3"}, "[12]": {"settings": "Batch 2, penicillin 100 ppb in whole milk, n=2"}, "[13]": {"settings": "Overall, penicillin 100 ppb in whole milk, n=4"}}}
{"compound": "gentamycin", "values": [{"measurement": "inhibition of the positive signal", "setting": "Antigentamycin", "result": "Considerable inhibition"}, {"measurement": "Absolute response (µA) Mean value", "setting": "[1]; [3]", "result": 3217, "unit": "µA"}, {"measurement": "Velocity (nA sec^1) Mean value", "setting": "[1]; [3]", "result": 36.0, "unit": "nA sec^1"}, {"measurement": "Absolute response (µA) Mean value", "setting": "[1]; [4]", "result": 3050, "unit": "µA"}, {"measurement": "Velocity (nA sec^1) Mean value", "setting": "[1]; [4]", "result": 22.7, "unit": "nA sec^1"}, {"measurement": "Absolute response (µA) Mean value", "setting": "[1]; [5]", "result": 1350, "unit": "µA"}, {"measurement": "Velocity (nA sec^1) Mean value", "setting": "[1]; [5]", "result": 8.7, "unit": "nA sec^1"}, {"measurement": "Absolute response (µA) Mean value", "setting": "[1]; [6]", "result": 2438, "unit": "µA"}, {"measurement": "Velocity (nA sec^1) Mean value", "setting": "[1]; [6]", "result": 18.0, "unit": "nA sec^1"}, {"measurement": "Absolute response (µA) Mean value", "setting": "[1]; [7]", "result": 2025, "unit": "µA"}, {"measurement": "Velocity (nA sec^1) Mean value", "setting": "[1]; [7]", "result": 14.3, "unit": "nA sec^1"}, {"measurement": "Absolute response (µA) Mean value", "setting": "[1]; [8]", "result": 1868, "unit": "µA"}, {"measurement": "Velocity (nA sec^1) Mean value", "setting": "[1]; [8]", "result": 10.8, "unit": "nA sec^1"}, {"measurement": "Absolute response (µA) Mean value", "setting": "[1]; [9]", "result": 1333, "unit": "µA"}, {"measurement": "Velocity (nA sec^1) Mean value", "setting": "[1]; [9]", "result": 6.0, "unit": "nA sec^1"}]}
{"compound": "CC1(C)S[C@@H]2[C@H](NC(=O)Cc3ccccc3)C(=O)N2[C@H]1C(=O)O", "note": "[Penicillin, penicillin G]", "values": [{"measurement": "Velocity (nA sec^1) Mean", "setting": "[2]; [10]", "result": "0.209 (12.6) nA sec^1"}, {"measurement": "Absolute response (µA) Mean (CV)", "setting": "[2]; [10]", "result": "0.087 (35.8) µA"}, {"measurement": "Velocity (nA sec^1) Mean", "setting": "[2]; [11]", "result": "0.151 (32.0) nA sec^1"}, {"measurement": "Absolute response (µA) Mean (CV)", "setting": "[2]; [11]", "result": "0.064 (17.7) µA"}, {"measurement": "Velocity (nA sec^1) Mean", "setting": "[2]; [12]", "result": "0.062 (5.7) nA sec^1"}, {"measurement": "Absolute response (µA) Mean (CV)", "setting": "[2]; [12]", "result": "0.026 (21.8) µA"}, {"measurement": "Absolute response (µA) Mean (CV)", "setting": "[2]; Overall (batch 1 + batch 2), penicillin 10 ppb in whole milk, n=3", "result": "0.064 (17.7) µA"}, {"measurement": "Velocity (nA sec^1) Mean", "setting": "[2]; Overall, penicillin 10 ppb in whole milk, n=3", "result": "0.151 (32.0) nA sec^1"}, {"measurement": "Velocity (nA sec^1) Mean", "setting": "[2]; [13]", "result": "0.135 (64.9) nA sec^1"}, {"measurement": "Absolute response (µA) Mean (CV)", "setting": "[2]; [13]", "result": "0.057 (70.2) µA"}]}
